For one experiment, the target named is T1, cPLA2 (Homo sapiens, UniProt P47712).
T1 sequence (P47712 1-749): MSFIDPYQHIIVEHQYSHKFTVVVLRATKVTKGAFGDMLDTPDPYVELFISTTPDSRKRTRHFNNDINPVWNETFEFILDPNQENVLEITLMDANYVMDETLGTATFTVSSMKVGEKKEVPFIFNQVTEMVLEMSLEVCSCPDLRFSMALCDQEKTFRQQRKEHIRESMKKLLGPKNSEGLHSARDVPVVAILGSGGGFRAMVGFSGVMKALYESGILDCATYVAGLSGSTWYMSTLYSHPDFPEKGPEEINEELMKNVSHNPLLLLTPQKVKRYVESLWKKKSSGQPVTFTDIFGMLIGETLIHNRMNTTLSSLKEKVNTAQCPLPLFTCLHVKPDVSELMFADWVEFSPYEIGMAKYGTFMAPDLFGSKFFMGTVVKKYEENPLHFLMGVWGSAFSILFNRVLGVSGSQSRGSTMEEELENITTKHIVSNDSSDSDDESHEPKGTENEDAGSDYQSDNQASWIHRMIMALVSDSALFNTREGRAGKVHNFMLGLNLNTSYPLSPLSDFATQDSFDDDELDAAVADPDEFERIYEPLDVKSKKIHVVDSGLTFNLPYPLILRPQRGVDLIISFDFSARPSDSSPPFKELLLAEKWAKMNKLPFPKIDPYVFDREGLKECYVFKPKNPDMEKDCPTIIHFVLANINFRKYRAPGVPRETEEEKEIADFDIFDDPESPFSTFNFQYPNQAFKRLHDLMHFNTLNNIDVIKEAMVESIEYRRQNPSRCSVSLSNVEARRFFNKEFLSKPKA
The experiment in a line: cPLA2 activity on TX-100/PAPC mixed micelles, inhibition by 2-oxoamides. It is filed as biochemical. Particulars: for XI(50) (mole fraction) / Highest Conc. (mole fraction) w/ % inhibition: Table 2, iPLA2; for Inhibitory potency relative to OA4 (fold less potent): cPLA2, compared with OA4; for XI(50): mixed micelles TX-100 400 μM, PAPC 97 μM, PIP2 3 μM (0.6 mole %); for Inhibition of cPLA2: result in words.

The target in another experiment is T2, iPLA2 (Homo sapiens, UniProt O60733).
T2 sequence (O60733 1-806): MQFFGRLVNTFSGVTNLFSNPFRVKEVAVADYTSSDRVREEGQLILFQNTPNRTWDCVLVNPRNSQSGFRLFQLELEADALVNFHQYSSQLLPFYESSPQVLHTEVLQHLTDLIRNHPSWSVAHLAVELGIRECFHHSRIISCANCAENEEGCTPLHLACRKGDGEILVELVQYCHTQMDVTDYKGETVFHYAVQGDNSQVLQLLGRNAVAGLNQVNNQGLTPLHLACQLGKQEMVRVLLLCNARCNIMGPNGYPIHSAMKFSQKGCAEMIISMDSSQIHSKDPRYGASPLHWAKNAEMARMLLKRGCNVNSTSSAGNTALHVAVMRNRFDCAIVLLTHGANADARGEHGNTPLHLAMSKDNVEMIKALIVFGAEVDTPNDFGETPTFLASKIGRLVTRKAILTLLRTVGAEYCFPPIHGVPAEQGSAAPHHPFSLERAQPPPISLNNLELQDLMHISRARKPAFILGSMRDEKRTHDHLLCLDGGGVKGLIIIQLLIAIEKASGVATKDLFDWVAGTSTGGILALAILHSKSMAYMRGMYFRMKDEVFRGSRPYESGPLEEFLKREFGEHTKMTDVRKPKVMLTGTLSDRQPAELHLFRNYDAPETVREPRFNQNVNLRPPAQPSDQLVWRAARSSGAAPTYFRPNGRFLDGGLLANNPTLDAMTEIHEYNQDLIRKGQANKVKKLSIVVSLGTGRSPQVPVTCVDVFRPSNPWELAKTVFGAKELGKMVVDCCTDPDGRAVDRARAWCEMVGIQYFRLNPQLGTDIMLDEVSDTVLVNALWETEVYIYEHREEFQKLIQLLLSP
The experiment can be described thus: iPLA2 activity mixed micelle assay, inhibition by 2-oxoamides. The format is biochemical. The source says:
All of the data above are provided with respect to XI(50), which is the mole fraction of inhibitor in the total substrate interface required to inhibit the enzyme by 50%. Almost all inhibitors of PLA2's partition into the phospholipid surface, because they usually have a hydrophobic nature that helps them bind to the active site of the PLA2. When these inhibitors partition into the surface, an important physical effect called surface dilution comes into play. In this case, the strength of the interaction of PLA2 and an inhibitor depends not on the bulk concentration of the inhibitor (molar units), but on the surface concentration of the inhibitor (mole fraction units).
PLA2 Activity Assays: Following homoginization and centrifugation, the spinal cord supernatants were assayed for cPLA2 or iPLA2 activity using the group specific assays developed in our laboratory (Yang et al., Biochem; 269: 278-288, 1999). Briefly the cPLA2 assay conditions were: 100 μM lipid PAPC/PIP2 (97/3) doping with 1% ^14C labeled PAPC in 400 μM triton X-100 mixed micelles, 100 mM Hepes, pH 7.5, 0.08 mM CaCl2, 0.1 mg/ml BSA and 2 mM DTT. iPLA2 assay conditions were: 100 μM DPPC doping with 1% ^14C labeled DPPC in 400 μM triton X-100 mixed micelles, 100 mM Hepes, pH 7.5, 5 mM EDTA, and 1 mM ATP. The total volume for each assay is 500 μL: 200 μL lipid, 250 μL assay buffer, 50 μL sample. In each case the amount of calcium or EDTA added was adjusted to account for the addition of EDTA in the lysis buffer to give the final concentrations listed above.
Lipid preparation: Lipid was dried under N2 and lyopholized for at least one hour to remove all traces of chloroform. Lipid was then resuspended in […] and triton X-100 and micelles were created by repeated vortexing and heating in hot water until the solution clarified. Samples were incubated with substrate for one hour at 40° C. The assay was then terminated and fatty acid extracted by the modified Dole assay. The amount of radioactive fatty acid released in the assay was determined by scintillation counting. Following analysis the data for the cPLA2 assay was adjusted for contaminating iPLA2 activity as described by Yang, et al. (Yang, et al., Anal. Biochem. 269: 278-288 (1999).

The mark [1] stands for this setting: Table 3, at 0.020 mole fraction.

SMILES strings stand for the structures. Entries after “also recorded” stand apart in the source; their conditions may differ.

On to `CCCCCCCCCCC(=O)C(=O)N[C@@H](CCCC)CCCCC(=O)O` [OA6, (6S)-6-(2-Oxo-dodecanoylamino)-decanoic Acid], for which, on cPLA2, the “XI(50) (mole fraction)” value was 0.018 ± 0.009 mole fraction and the “Inhibitory potency relative to OA4 (fold less potent)” value was “around 2 fold”.
For the compound `CCOC[C@H](CCC(=O)O)NC(=O)C(=O)CC` [OA10], on cPLA2, the “XI(50) (mole fraction)” value came to 0.045 ± 0.007 mole fraction and the “XI(50)” value is recorded as 0.045±0.007 mole fraction.
On to `CCC/C=C\CCNC(=O)C(=O)CC` [OA23], for which the “Highest Conc. (mole fraction) w/ % inhibition” value at iPLA2 (setting [1]) was 0.020: 43% ± 4%.
On to `CCCCCCCCCCC(=O)C(=O)N[C@H](CCC(=O)O)COC(=O)NCC` [OA32, 5-ethylcarbamoyloxy-4-(R)-(2-oxo-dodecanoylamino)-pentanoic Acid], for which, at cPLA2, the “Inhibition of cPLA2” value is recorded as “essentially no measurable inhibition”.
For `CCC(=O)C(=O)NCCCC(=O)OC` [OA19], on cPLA2, the “Inhibition of cPLA2” value is on record as “no inhibitory activity; also recorded: no measurable inhibition”. For the same compound, on iPLA2 (Table 3), the “XI(50) (mole fraction)” value is on record as 0.0158 ± .0009 mole fraction.
Turning to `CCCCCCCCCCCCCC(=O)C(=O)N[C@H](CCC(=O)O)Cc1ccccc1` [OA9, (4R)-4-(2-Oxo-pentadecanoylamino)-5-phenyl-pentanoic Acid], the “XI(50) (mole fraction)” value on cPLA2 is listed as 0.035 ± 0.016 mole fraction.
As to `CCCCCCCCCCC(=O)C(=O)N[C@@H](CCC(=O)O)COC(=O)NCCCCCCCC` [OA16, 5-octylcarbamoyloxy-4-(S)-(2-oxo-dodecanoylamino)-pentanoic Acid], the “Highest Conc. (mole fraction) w/ % inhibition” value on cPLA2 (at 0.091 mole fraction) is on record as 0.091, 60%. Besides, on cPLA2, the “Inhibition of cPLA2” value is on record as “essentially no measurable inhibition”.
As to `COC(=O)CCCNC(=O)C(=O)CCCc1ccccc1` [OA34], the “Inhibition of cPLA2” value on cPLA2 is on record as “do not inhibit”.
With `CCCCCCCCCCCCCC(=O)C(=O)N[C@@H](CCCC)CC(=O)O` [OA3, (3S)-(2-Oxo-pentadecanoylamino)-heptanoic Acid], on cPLA2, the “XI(50) (mole fraction)” value stood at 0.027 ± 0.004 mole fraction and the “Inhibitory potency relative to OA4 (fold less potent)” value is given as “around 3 fold”.
Consider `CCC/C=C\CCNC(=O)C(=O)CC` [OA24], for which the “Highest Conc. (mole fraction) w/ % inhibition” value on iPLA2 (setting [1]) was 0.020: 60% ± 6%.
For `CCCCCCCCCCCCCC(=O)C(=O)N[C@H](CCC(=O)O)CC(C)C` [OA12, (4R)-6-Methyl-4-(2-oxo-pentadecanoylamino)-heptanoic Acid], the “XI(50) (mole fraction)” value on cPLA2 is recorded as 0.017 ± 0.006 mole fraction.
`COC(=O)CCCNC(=O)C(=O)CCCCc1ccccc1` [OA20]: on cPLA2, the “Inhibition of cPLA2” value was “do not inhibit”. The “Highest Conc. (mole fraction) w/ % inhibition” value at iPLA2 (Table 3, at 0.091 mole fraction) is on record as 0.091: 55% ± 4%.
For the compound `CCCCCCCCCCCCCC(=O)C(=O)N[C@@H](CCCC)CCCC(=O)O` [OA5, (5S)-5-(2-Oxopentadecanoylamino)-nonanoic Acid], at cPLA2, the “XI(50) (mole fraction)” value stood at 0.008 ± 0.003 mole fraction and the “Inhibitory potency relative to OA4 (fold less potent)” value is reported as “essentially equivalent”.
For `CCCCCCCCCCC(=O)C(=O)N[C@H](CCCC)CCC(=O)O` [OA7, (4R)-4-[(2-Oxododecanoyl)amino]octanoic acid], on cPLA2, the “XI(50) (mole fraction)” value is recorded as 0.068 ± 0.005 mole fraction and the “XI(50)” value was determined as 0.068±0.005 mole fraction.
As for `O=C(O)CCCNC(=O)C(=O)CCCCc1ccccc1` [OA35, 4-(2-Oxo-6-phenyl-hexanoylamino)-butyric Acid], the “Inhibition of cPLA2” value at cPLA2 was “lack of inhibition”.
As to `CCCCCCCCCCOC[C@@H](CCC(=O)O)NC(=O)C(=O)CCCCCCCCCC` [OA11, (4R)-5-(Decyloxy)-4-[(2-oxododecanoyl)amino]pentanoic Acid], at cPLA2, the “XI(50) (mole fraction)” value is given as 0.047 ± 0.006 mole fraction and the “XI(50)” value was determined as 0.047±0.006 mole fraction.
Turning to `CCCCCCCCCCC(=O)C(=O)N[C@@H](CCC(=O)O)COC(=O)NCC` [OA30, 5-ethylcarbamoyloxy-4-(S)-(2-oxo-dodecanoylamino)-pentanoic Acid], the “Inhibition of cPLA2” value on cPLA2 is “does not inhibit; also recorded: essentially no measurable inhibition”.
For the compound `CCNC(=O)C(=O)CC` [OA8], the “Highest Conc. (mole fraction) w/ % inhibition” value on cPLA2 (at 0.02 mole fraction) is recorded as 0.02; 22% ± 7%.
Regarding `CCCCCCCCCCC(=O)C(=O)N[C@H](CCC(=O)O)CC(C)C` [OA13, (4R)-6-Methyl-4-(2-oxo-dodecanoylamino)-heptanoic Acid], the “XI(50) (mole fraction)” value at cPLA2 was 0.033 ± 0.013 mole fraction.
For the compound `O=C(O)CCCNC(=O)C(=O)CCCc1ccccc1` [OA36, 4-(2-Oxo-5-phenyl-pentanoylamino)-butyric Acid], on cPLA2, the “Inhibition of cPLA2” value is “lack of inhibition”.
With `CCNC(=O)C(=O)CC` [OA22], on iPLA2 (setting [1]), the “Highest Conc. (mole fraction) w/ % inhibition” value is 0.020: 31% ± 6%.
For `CCCCCCC(=O)C(=O)N[C@H](CCC(=O)O)Cc1ccccc1` [OA17, (4R)-4-(2-Oxo-octanoylamino)-5-phenyl-pentanoic Acid], at cPLA2 (at 0.091 mole fraction), the “Highest Conc. (mole fraction) w/ % inhibition” value is given as 0.091; 24%.
Regarding `CCCCCCCCCCC(=O)C(=O)N[C@@H](CCC(=O)O)C(=O)NCC` [OA29, 4-Ethylcarbamoyl-4-(S)-(2-oxo-dodecanoylamino)-butyric Acid], the “Inhibition of cPLA2” value at cPLA2 is recorded as “did not inhibit; also recorded: essentially no measurable inhibition”.
Turning to `CCCCCCCCCCCCCC(=O)C(=O)N1CCCC1CCC(=O)O` (stereo not shown) [OA18, 3-[1-(2-Oxo-pentadecanoyl)-pyrrolidin-2-yl]propionic Acid], on cPLA2 (at 0.091 mole fraction), the “Highest Conc. (mole fraction) w/ % inhibition” value is 0.091; 24%.
In the case of `CCCCCCCCCCCCCCC(=O)C(=O)N[C@@H](CCC(=O)O)C(=O)NCCCCCCCCCC` [OA15, 4-Decylcarbamoyl-4-(S)-(2-oxo-hexadecanoylamino)-butyric Acid], at cPLA2, the “XI(50) (mole fraction)” value was found to be 0.044 ± 0.007 mole fraction and the “Inhibition of cPLA2” value is on record as “moderate level of inhibition”.
Take `CCCCCCCCCCC(=O)C(=O)N[C@H](CCC(=O)O)C(=O)NCC` [OA31, 4-Ethylcarbamoyl-4-(R)-(2-oxo-dodecanoylamino)-butyric Acid]: the “Inhibition of cPLA2” value at cPLA2 is on record as “essentially no measurable inhibition”.
`CCC(=O)C(N)=O` [OA21]: on iPLA2 (setting [1]), the “Highest Conc. (mole fraction) w/ % inhibition” value is on record as 0.020: 38% ± 6%.
